Experimental data from ChEMBL document CHEMBL1156443, “Guanidinylated neomycin delivers large, bioactive cargo into cells through a heparan sulfate-dependent pathway” (J Biol Chem, 2007).
Active and inactive are the calls of the source. No cut-off for these calls is given here.

How the values were obtained:
[1] = tested on: CHO; assay: Cytotoxicity against CHO pgsA745 mutant cells upto 100 nM after 4 days by Cell-Titer assay; format: cell-based, Cricetulus griseus; details: chinese hamster, 96 h
[2] = tested on: CHO; assay: Cytotoxicity against CHO cells upto 100 nM after 4 days by Cell-Titer assay; format: cell-based, Cricetulus griseus; details: chinese hamster, 96 h
[3] = target: Fibroblast growth factor 2 (Homo sapiens, UniProt P09038); assay: Binding affinity to biotinylated FGF2 in CHO cells by flow cytometry; format: cell-based
Fibroblast growth factor 2, sequence (P09038 143-288 limits assumed): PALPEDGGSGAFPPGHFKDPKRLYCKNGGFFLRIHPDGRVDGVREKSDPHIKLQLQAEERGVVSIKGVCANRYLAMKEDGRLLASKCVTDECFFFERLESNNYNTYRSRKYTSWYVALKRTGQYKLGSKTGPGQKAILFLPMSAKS

[4] = tested on: CHO; assay: Inhibition of arg9 binding to CHO cells after 1 hr by flow cytometry; format: cell-based
[5] = tested on: CHO; assay: Inhibition of arg9 binding to CHO pgsA745 mutant cells after 1 hr by flow cytometry; format: cell-based

| IC50 [3] | Compound | Activity [1] | Activity [2] | Activity [4] | Activity [5] |
| --- | --- | --- | --- | --- | --- |
|  | N=C(N)NC[C@@H]1O[C@H](O[C@H]2[C@@H](O)[C@H](O[C@@H]3[C@@H](O)[C@H](NC(=N)N)C[C@H](NC(=N)N)[C@H]3O[C@H]3O[C@H](CNC(=N)N)[C@@H](O)[C@H](O)[C@H]3NC(=N)N)O[C@@H]2CSCCNC(=O)CCCCCNC(=O)CCCC[C@@H]2SCC3NC(=O)NC32)[C@H](NC(=N)N)[C@@H](O)[C@@H]1O (stereo not given in full) | Non-toxic | Non-toxic |  |  |
| 20 µM | N=C(N)NC[C@@H]1O[C@H](O[C@H]2[C@@H](O)[C@H](O[C@@H]3[C@@H](O)[C@H](NC(=N)N)C[C@H](NC(=N)N)[C@H]3O[C@H]3O[C@H](CNC(=N)N)[C@@H](O)[C@H](O)[C@H]3NC(=N)N)O[C@@H]2CO)[C@H](NC(=N)N)[C@@H](O)[C@@H]1O [GUANIDINONEOMYCIN] |  |  | Active | inactive |
